Values joined by “and” are separate entries in the source; they are usually repeats but may differ in a detail not shown here. Equal entries are not always repeated.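 In this assay, cells in 96-well plates receive the compound at five concentrations for 48 hours. Endpoints are linearly interpolated between the surrounding concentrations. At the GI50, growth is halved. Definition used: TGI = concentration required for complete inhibition of growth.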
Experiments:
Experiment in all cases: NCI tumour cell line growth inhibition, 48 h
EKVX NSCLC = tested on: EKVX NSCLC
NCI-H23 lung = tested on: NCI-H23 lung
RPMI-8226 leukemia = tested on: RPMI-8226 leukemia
SNB-78 CNS = tested on: SNB-78 CNS
K-562 leukemia = tested on: K-562 leukemia
SW-620 colon = tested on: SW-620 colon
UACC-257 melanoma = tested on: UACC-257 melanoma
IGROV1 ovarian = tested on: IGROV1 ovarian
OVCAR-3 ovarian = tested on: OVCAR-3 ovarian
MALME-3M melanoma = tested on: MALME-3M melanoma
CCRF-CEM leukemia = tested on: CCRF-CEM leukemia
T-47D breast = tested on: T-47D breast
NCI-H226 lung = tested on: NCI-H226 lung
LOX IMVI melanoma = tested on: LOX IMVI melanoma
HCT-116 colon = tested on: HCT-116 colon
KM12 colon = tested on: KM12 colon
SNB-19 CNS = tested on: SNB-19 CNS
HOP-92 NSCLC = tested on: HOP-92 NSCLC
HT29 colon = tested on: HT29 colon
SK-MEL-2 melanoma = tested on: SK-MEL-2 melanoma
MDA-MB-435 = tested on: MDA-MB-435
NCI-H522 lung = tested on: NCI-H522 lung
HS 578T breast = tested on: HS 578T breast
LXFL 529 NSCLC = tested on: LXFL 529 NSCLC
MOLT-4 leukemia = tested on: MOLT-4 leukemia
A549 NSCLC = tested on: A549 NSCLC
SF-295 CNS = tested on: SF-295 CNS
786-0 renal = tested on: 786-0 renal
SK-MEL-28 melanoma = tested on: SK-MEL-28 melanoma
SK-OV-3 ovarian = tested on: SK-OV-3 ovarian
NCI/ADR-RES ovarian = tested on: NCI/ADR-RES ovarian
RXF 393 renal = tested on: RXF 393 renal
OVCAR-5 ovarian = tested on: OVCAR-5 ovarian
DMS 114 small cell lung = tested on: DMS 114 small cell lung
HCT-15 colon = tested on: HCT-15 colon
MDA-N = tested on: MDA-N
SNB-75 CNS = tested on: SNB-75 CNS
COLO 205 colon = tested on: COLO 205 colon
TK-10 renal = tested on: TK-10 renal
U251 CNS = tested on: U251 CNS
OVCAR-8 ovarian = tested on: OVCAR-8 ovarian
HOP-62 NSCLC = tested on: HOP-62 NSCLC
BT-549 breast = tested on: BT-549 breast
UO-31 renal = tested on: UO-31 renal
UACC-62 melanoma = tested on: UACC-62 melanoma
M14 melanoma = tested on: M14 melanoma
A498 renal = tested on: A498 renal
DMS 273 small cell lung = tested on: DMS 273 small cell lung
CAKI-1 renal = tested on: CAKI-1 renal
MCF7 breast = tested on: MCF7 breast
PC-3 prostate = tested on: PC-3 prostate
ACHN renal = tested on: ACHN renal
NCI-H460 lung = tested on: NCI-H460 lung
SR leukemia = tested on: SR leukemia
XF 498 CNS = tested on: XF 498 CNS
SN12C renal = tested on: SN12C renal
M19-MEL melanoma = tested on: M19-MEL melanoma
KM20L2 colon = tested on: KM20L2 colon
HOP-18 NSCLC = tested on: HOP-18 NSCLC
HCC-2998 colon = tested on: HCC-2998 colon
HL-60(TB) leukemia = tested on: HL-60(TB) leukemia
OVCAR-4 ovarian = tested on: OVCAR-4 ovarian
DLD-1 colon = tested on: DLD-1 colon
DU-145 prostate = tested on: DU-145 prostate
SF-268 CNS = tested on: SF-268 CNS
SF-539 CNS = tested on: SF-539 CNS
MDA-MB-231 breast = tested on: MDA-MB-231 breast
SK-MEL-5 melanoma = tested on: SK-MEL-5 melanoma
RXF-631 renal = tested on: RXF-631 renal

For `CN(C)CCCCN1CCc2c(n(C)c3ccccc23)C1=O`, the TGI (EKVX NSCLC) was 85.9 µM and > 100 µM, the TGI (NCI-H23 lung) was greater than 100 µM and the GI50 (RPMI-8226 leukemia) was 61.7 µM and 29.3 µM. For the same molecule, the TGI (RPMI-8226 leukemia) was 93.2 µM and 64.7 µM, the TGI (SNB-78 CNS) was greater than 100 µM and the TGI (K-562 leukemia) was 51.9 µM and > 59.4 µM. For the same molecule, the TGI (SW-620 colon) was > 81.6 µM and 63.9 µM, the TGI (UACC-257 melanoma) was 28.7 µM and 31.4 µM and the TGI (IGROV1 ovarian) was greater than 100 µM. The TGI (OVCAR-3 ovarian) was greater than 100 µM, the TGI (MALME-3M melanoma) was 43.6 µM and 36.3 µM and the TGI (CCRF-CEM leukemia) was greater than 100 µM. For the same molecule, the TGI (T-47D breast) was > 51.5 µM and 59.9 µM, the TGI (NCI-H226 lung) was greater than 80.5 µM and the TGI (LOX IMVI melanoma) was > 72.9 µM and 42.8 µM. For the same molecule, the TGI (HCT-116 colon) was 75.6 µM and 45.1 µM, the TGI (KM12 colon) was greater than 92.7 µM and the TGI (SNB-19 CNS) was greater than 100 µM. For the same molecule, the TGI (HOP-92 NSCLC) was 81.2 µM and > 90.7 µM, the TGI (HT29 colon) was 63.4 µM and 37.9 µM and the TGI (SK-MEL-2 melanoma) was 50.2 µM and 35.9 µM. The TGI (MDA-MB-435) was 33.9 µM and 35 µM, the TGI (NCI-H522 lung) was greater than 82 µM and the TGI (HS 578T breast) was greater than 89.4 µM. It also gave a TGI (LXFL 529 NSCLC) of 35.1 µM, a TGI (MOLT-4 leukemia) greater than 87.6 µM and a TGI (A549 NSCLC) greater than 93.5 µM. The TGI (SF-295 CNS) was 71.9 µM and 49.6 µM, the TGI (786-0 renal) was > 79.7 µM and 49.4 µM and the TGI (SK-MEL-28 melanoma) was 39.7 µM and 31.4 µM. For the same molecule, the TGI (SK-OV-3 ovarian) was greater than 95 µM, the TGI (NCI/ADR-RES ovarian) was greater than 100 µM and the TGI (RXF 393 renal) was 84.7 µM and > 90.5 µM. For the same molecule, the GI50 (OVCAR-5 ovarian) was 54.1 µM and 24.2 µM, the TGI (OVCAR-5 ovarian) was > 78.6 µM and 67.3 µM and the TGI (DMS 114 small cell lung) was greater than 100 µM. For the same molecule, the TGI (HCT-15 colon) was 54.9 µM and 58.3 µM, the TGI (MDA-N) was 18.3 µM and 34.2 µM and the TGI (SNB-75 CNS) was 71.3 µM and 60.8 µM. For the same molecule, the TGI (COLO 205 colon) was 61.7 µM and 33 µM, the GI50 (TK-10 renal) was > 100 µM and 38.8 µM and the TGI (TK-10 renal) was greater than 100 µM. For the same molecule, the GI50 (U251 CNS) was 72.4 µM and 34.1 µM, the TGI (U251 CNS) was 99.5 µM and > 60.1 µM and the TGI (OVCAR-8 ovarian) was greater than 100 µM. For the same molecule, the TGI (HOP-62 NSCLC) was > 80.8 µM and 63.7 µM, the TGI (BT-549 breast) was > 61.5 µM and 95.3 µM and the TGI (UO-31 renal) was > 76.3 µM and 46.7 µM. The TGI (UACC-62 melanoma) was 54.3 µM and 31.8 µM, the TGI (M14 melanoma) was 36.8 µM and 34 µM and the GI50 (A498 renal) was > 59 µM and 19.9 µM. For the same molecule, the TGI (A498 renal) was > 85.1 µM and 49 µM, the TGI (DMS 273 small cell lung) was greater than 100 µM and the TGI (CAKI-1 renal) was > 73.4 µM and 65.3 µM. For the same molecule, the TGI (MCF7 breast) was > 59.9 µM and 64.7 µM, the GI50 (PC-3 prostate) was 33 µM and > 68.7 µM and the TGI (PC-3 prostate) was greater than 100 µM. The TGI (ACHN renal) was greater than 100 µM, the GI50 (NCI-H460 lung) was 54.6 µM and 24.2 µM and the TGI (NCI-H460 lung) was > 87.1 µM and 49.8 µM. For the same molecule, the GI50 (SR leukemia) was 53.3 µM and 12.7 µM, the TGI (SR leukemia) was > 100 µM and 35.9 µM and the TGI (XF 498 CNS) was 43.6 µM. For the same molecule, the TGI (SN12C renal) was > 90.1 µM and 98 µM, the TGI (M19-MEL melanoma) was 69.6 µM and the TGI (KM20L2 colon) was greater than 72.9 µM. The TGI (HOP-18 NSCLC) was greater than 100 µM, the GI50 (HCC-2998 colon) was 39.7 µM and 15.9 µM and the TGI (HCC-2998 colon) was 64.3 µM and 30.3 µM. For the same molecule, the TGI (HL-60(TB) leukemia) was greater than 100 µM, the TGI (OVCAR-4 ovarian) was greater than 100 µM and the TGI (DLD-1 colon) was greater than 100 µM. The TGI (DU-145 prostate) was greater than 100 µM, the TGI (SF-268 CNS) was > 76.3 µM and 57.6 µM and the GI50 (SF-539 CNS) was 50.5 µM and 21.7 µM. For the same molecule, the TGI (SF-539 CNS) was 68.9 µM and 44 µM, the TGI (MDA-MB-231 breast) was > 63.2 µM and 61.9 µM and the TGI (SK-MEL-5 melanoma) was 42.8 µM and 31.9 µM.
With `CCN(CC)CCCN(c1cc(OC)cc2nccnc12)S(=O)(=O)c1ccc(C)cc1` the TGI (EKVX NSCLC) was greater than 100 µM, the TGI (NCI-H23 lung) was greater than 100 µM and the TGI (RPMI-8226 leukemia) was greater than 100 µM. For the same molecule, the TGI (K-562 leukemia) was greater than 100 µM, the TGI (SW-620 colon) was greater than 100 µM and the TGI (UACC-257 melanoma) was greater than 100 µM. It also gave a TGI (IGROV1 ovarian) greater than 100 µM, a TGI (OVCAR-3 ovarian) greater than 100 µM and a TGI (MALME-3M melanoma) greater than 100 µM. It also gave a TGI (CCRF-CEM leukemia) greater than 100 µM, a TGI (NCI-H226 lung) greater than 100 µM and a TGI (LOX IMVI melanoma) greater than 100 µM. For the same molecule, the TGI (KM12 colon) was greater than 100 µM, the TGI (SNB-19 CNS) was greater than 100 µM and the TGI (HOP-92 NSCLC) was greater than 100 µM. The TGI (HT29 colon) was greater than 100 µM, the TGI (SK-MEL-2 melanoma) was greater than 100 µM and the TGI (NCI-H522 lung) was greater than 100 µM. It also gave a TGI (LXFL 529 NSCLC) greater than 100 µM, a TGI (MOLT-4 leukemia) greater than 100 µM and a TGI (A549 NSCLC) greater than 100 µM. The TGI (SF-295 CNS) was greater than 100 µM, the TGI (786-0 renal) was greater than 100 µM and the TGI (SK-MEL-28 melanoma) was greater than 100 µM. It also gave a TGI (SK-OV-3 ovarian) greater than 100 µM, a TGI (RXF 393 renal) greater than 100 µM and a TGI (OVCAR-5 ovarian) greater than 100 µM. For the same molecule, the TGI (DMS 114 small cell lung) was greater than 100 µM, the TGI (HCT-15 colon) was greater than 100 µM and the TGI (SNB-75 CNS) was greater than 100 µM. The TGI (COLO 205 colon) was greater than 100 µM, the TGI (TK-10 renal) was greater than 100 µM and the TGI (U251 CNS) was greater than 100 µM. It also gave a TGI (OVCAR-8 ovarian) greater than 100 µM, a TGI (HOP-62 NSCLC) greater than 100 µM and a TGI (UO-31 renal) greater than 100 µM. For the same molecule, the TGI (RXF-631 renal) was greater than 100 µM, the TGI (UACC-62 melanoma) was greater than 100 µM and the TGI (M14 melanoma) was greater than 100 µM. It also gave a TGI (A498 renal) greater than 100 µM, a TGI (DMS 273 small cell lung) greater than 100 µM and a TGI (CAKI-1 renal) greater than 100 µM. For the same molecule, the TGI (ACHN renal) was greater than 100 µM, the TGI (NCI-H460 lung) was greater than 100 µM and the TGI (SR leukemia) was greater than 100 µM. For the same molecule, the TGI (XF 498 CNS) was greater than 100 µM, the TGI (SN12C renal) was greater than 100 µM and the TGI (M19-MEL melanoma) was greater than 100 µM. The TGI (KM20L2 colon) was greater than 100 µM, the TGI (HOP-18 NSCLC) was greater than 100 µM and the TGI (HCC-2998 colon) was greater than 100 µM. The TGI (HL-60(TB) leukemia) was greater than 100 µM, the TGI (OVCAR-4 ovarian) was greater than 100 µM and the TGI (DLD-1 colon) was greater than 100 µM. The TGI (SF-268 CNS) was greater than 100 µM, the TGI (SF-539 CNS) was greater than 100 µM and the TGI (SK-MEL-5 melanoma) was greater than 100 µM.
